Data reported in patent US9365604B2, “Oligomer-nucleoside phosphate conjugates” (NEKTAR THERAPEUTICS, priority 2007, dated 2016).
Where two headings read alike, the source gives them in different places.

Columns and labels:
PANC-1 [1] = assay: In vitro cytotoxicity assay (CellTiter-Glo); type: cell-based; conditions: Homo sapiens, 72 h exposure
Protocol: (§1) The objective of these studies was to determine the IC50 values for PEG-gemcitabine conjugates against gemcitabine-resistant cell lines based on data from previous Xenograft studies. The cells were exposed for 72 h, and cell viability assessed by using the CellTiter-Glo assay.
The PEG-gemcitabine derivatives and gemcitabine inhibited the growth of most of the cell lines with IC50 values from the nM to low μM range, except for PANC-1 cells. Like the previous study, some of the IC50 values should be interpreted carefully because the concentration range tested was not centered around the IC50. […] The PANC-1 pancreatic cell line, in contrast to BxPC-3, Capan-1, or MIA-PaCa-2, has been shown previously to be resistant in vitro to gemcitabine, and 4′-thio-FAC, a deoxycytidine sulfur- and fluoro-substituted analog (Zajchowski et al., (2005). Int J Cancer. 114(6), 1002-9).

HT29 = assay: Sulforhodamine B (SRB) growth inhibition assay; type: cell-based, Human; conditions: Homo sapiens, HT-29, SRB assay
Protocol: (§2) In Vitro Screening of PEG-Gemcitabine Monophosphate in Selected Human Cancer Cell Lines
(§3) The aim was to determine the GI50 values for PEG-floxuridine conjugates against a panel of cell lines, and based on previous data from Xenograft studies. […] The test articles were solubilized in dimethylsulfoxide and were tested at four different molar (M) concentrations; 10^−4, 10^−5, 10^−6, M. GI50 (the concentration needed to reduce the growth of treated cells to half that of untreated control cells) was calculated for each condition ([(Ti−Tz)/(C-Tz)]×100=50, where Ti, Tz, and C refer to absorbance values obtained from each tested concentration, time zero, and control treatment, respectively).
as §3, with “The objective” for “The aim”, “the IC50” for “the GI50”, “for PEG-gemcitabine” for “for PEG-floxuridine”, “in dimethyl sulfoxide” for “in dimethylsulfoxide”, “10^−6, 10^−7” for “10^−6,”, “condition ([(Ti−Tz)/(C−Tz)]×100=50,” for “condition ([(Ti−Tz)/(C-Tz)]×100=50,”

COLO205 = assay: Sulforhodamine B (SRB) growth inhibition assay; type: cell-based, Human; conditions: Homo sapiens, COLO 205, COLO205, SRB assay
Protocol: as §2, §3
as §3, with “The objective” for “The aim”, “the IC50” for “the GI50”, “for PEG-gemcitabine” for “for PEG-floxuridine”, “in dimethyl sulfoxide” for “in dimethylsulfoxide”, “10^−6, 10^−7” for “10^−6,”, “condition ([(Ti−Tz)/(C−Tz)]×100=50,” for “condition ([(Ti−Tz)/(C-Tz)]×100=50,”

A2780 = assay: Sulforhodamine B (SRB) growth inhibition assay; type: cell-based, Human; conditions: Homo sapiens, SRB assay
Protocol: as §2, §3
as §3, with “The objective” for “The aim”, “the IC50” for “the GI50”, “for PEG-gemcitabine” for “for PEG-floxuridine”, “in dimethyl sulfoxide” for “in dimethylsulfoxide”, “10^−6, 10^−7” for “10^−6,”, “condition ([(Ti−Tz)/(C−Tz)]×100=50,” for “condition ([(Ti−Tz)/(C-Tz)]×100=50,”

HCT15 = assay: Sulforhodamine B (SRB) growth inhibition assay; type: cell-based, Human; conditions: Homo sapiens, HCT-15, SRB assay
Protocol: as §2, §3
as §3, with “The objective” for “The aim”, “the IC50” for “the GI50”, “for PEG-gemcitabine” for “for PEG-floxuridine”, “in dimethyl sulfoxide” for “in dimethylsulfoxide”, “10^−6, 10^−7” for “10^−6,”, “condition ([(Ti−Tz)/(C−Tz)]×100=50,” for “condition ([(Ti−Tz)/(C-Tz)]×100=50,”

MCF7 = assay: Sulforhodamine B (SRB) growth inhibition assay; type: cell-based, Human; conditions: Homo sapiens
Protocol: as §2, §3
as §3, with “The objective” for “The aim”, “the IC50” for “the GI50”, “for PEG-gemcitabine” for “for PEG-floxuridine”, “in dimethyl sulfoxide” for “in dimethylsulfoxide”, “10^−6, 10^−7” for “10^−6,”, “condition ([(Ti−Tz)/(C−Tz)]×100=50,” for “condition ([(Ti−Tz)/(C-Tz)]×100=50,”

Hop62 = assay: Sulforhodamine B (SRB) growth inhibition assay; type: cell-based, Human; conditions: Homo sapiens, HOP-62, SRB assay
Protocol: as §2, §3
as §3, with “The objective” for “The aim”, “the IC50” for “the GI50”, “for PEG-gemcitabine” for “for PEG-floxuridine”, “in dimethyl sulfoxide” for “in dimethylsulfoxide”, “10^−6, 10^−7” for “10^−6,”, “condition ([(Ti−Tz)/(C−Tz)]×100=50,” for “condition ([(Ti−Tz)/(C-Tz)]×100=50,”

MDCK cells [2] = test system: MDCK cells
Excerpt: (§5) Bi-Directional Permeability of PEG-Floxuridine Conjugates in Caco-2 and MDCK Cells

NCI-H23 = assay: In vitro cytotoxicity assay (CellTiter-Glo); type: cell-based; conditions: Homo sapiens, 72 h exposure, CellTiter-Glo
Protocol: as §1

NCI-H522 = assay: In vitro cytotoxicity assay (CellTiter-Glo); type: cell-based; conditions: Homo sapiens, 72 h exposure, CellTiter-Glo
Protocol: as §1

AS283 = assay: In vitro cytotoxicity assay (CellTiter-Glo); type: cell-based; conditions: 72 h exposure, CellTiter-Glo
Protocol: as §1

DLD-1 = assay: In vitro cytotoxicity assay (CellTiter-Glo); type: cell-based; conditions: Homo sapiens, 72 h exposure, CellTiter-Glo
Protocol: as §1

RL = assay: In vitro cytotoxicity assay (CellTiter-Glo); type: cell-based; conditions: Homo sapiens, 72 h exposure, CellTiter-Glo
Protocol: as §1

SW-620 = assay: In vitro cytotoxicity assay (CellTiter-Glo); type: cell-based; conditions: Homo sapiens, 72 h exposure, CellTiter-Glo
Protocol: as §1

K-562 = assay: In vitro cytotoxicity assay (CellTiter-Glo); type: cell-based; conditions: Homo sapiens, K562, 72 h exposure, CellTiter-Glo
Protocol: as §1

NCI-H460 = assay: In vitro cytotoxicity assay (CellTiter-Glo); type: cell-based; conditions: Homo sapiens, 72 h exposure, CellTiter-Glo
Protocol: as §1

CCRF-CEM = assay: In vitro cytotoxicity assay (CellTiter-Glo); type: cell-based; conditions: Homo sapiens, 72 h exposure, CellTiter-Glo
Protocol: as §1

HL-60 = assay: In vitro cytotoxicity assay (CellTiter-Glo); type: cell-based; conditions: Homo sapiens, 72 h exposure, CellTiter-Glo
Protocol: as §1

PANC-1 [3] = conditions: Zajchowski et al. 2005; cited from earlier work
MDCK cells [4] = assay: Bi-directional permeability in MDCK cells
Excerpt: as §5

[5] = Bi-directional permeability in MDCK cells; conditions: dog
Excerpt: as §5

Caco-2 cells [6] = test system: Caco-2 cells
Excerpt: as §5

CAKI-1 = assay: In vitro cytotoxicity assay (CellTiter-Glo); type: cell-based; conditions: Homo sapiens, 72 h exposure, CellTiter-Glo
[7] = Bi-directional permeability in Caco-2 cells; conditions: human
Excerpt: as §5

Caco-2 cells [8] = assay: Bi-directional permeability in Caco-2 cells
Excerpt: as §5

DU145 = assay: Sulforhodamine B (SRB) growth inhibition assay; type: cell-based, Human; conditions: Homo sapiens, DU-145, SRB assay, cells exposed for 24 h, read-out: GI50 values (μM) DU145
Protocol: as §3
as §3, with “The objective” for “The aim”, “the IC50” for “the GI50”, “for PEG-gemcitabine” for “for PEG-floxuridine”, “in dimethyl sulfoxide” for “in dimethylsulfoxide”, “10^−6, 10^−7” for “10^−6,”, “condition ([(Ti−Tz)/(C−Tz)]×100=50,” for “condition ([(Ti−Tz)/(C-Tz)]×100=50,”

in vitro = conditions: human
Protocol: Cells were inoculated into 24-well microtiter plates in 100 μL at 5×10^3 cells/well, in duplicate. After 24 h, test articles were added to the cells for 24 or 48 h, after which time the supernatant from each of the wells was collected and stored below −15° C. until LC/MS analysis.

HCT-116 = assay: In vitro cytotoxicity assay (CellTiter-Glo); type: cell-based; conditions: Homo sapiens, 72 h exposure, CellTiter-Glo
Protocol: (§4) The objective of these studies were to determine the IC50 values for PEG-floxuridine conjugates against floxuridine-resistant cell lines based on data from previous Xenograft studies. The cells were exposed for 72 h, and cell viability assessed by using the CellTiter-Glo assay.
as §1

MIA PaCa-2 = assay: In vitro cytotoxicity assay (CellTiter-Glo); type: cell-based; conditions: Homo sapiens, 72 h exposure, CellTiter-Glo
Protocol: as §4, §1

HT-29 = assay: In vitro cytotoxicity assay (CellTiter-Glo); type: cell-based; conditions: Homo sapiens, 72 h exposure, CellTiter-Glo
Protocol: as §4, §1

For Nc1ccn([C@@H]2O[C@H](CO)[C@@H](O)C2(F)F)c(=O)n1 [Gemcitabine, reference compound], which IC50 (PANC-1 [1]) is on record?
Its IC50 is over 1e+06 nM.

What about the GI50 (HT29; 48 h drug exposure, read-out: GI50 (molar concentration) in Cell Line HT29) of the same compound?
Its GI50 is 2.1 µM.

And the GI50 (HT29; cells exposed for 24 h, read-out: GI50 values (μM) HT29)?
The GI50 was 2.1 µM.

What about the GI50 (COLO205; 48 h drug exposure, read-out: GI50 (molar concentration) in Cell Line COLO205) of the same compound?
Its GI50 is 0.14 µM.

And the GI50 (COLO205; cells exposed for 24 h, read-out: GI50 values (μM) COLO205)?
Its GI50 is 0.14 µM.

What about the GI50 (A2780; 48 h drug exposure, read-out: GI50 (molar concentration) in Cell Line A2780) of the same compound?
Its GI50 is under 0.1 µM.

What about the GI50 (A2780; cells exposed for 24 h, read-out: GI50 values (μM) A2780) of the same compound?
Its GI50 is under 0.1 µM.

What about the GI50 (HCT15; 48 h drug exposure, read-out: GI50 (molar concentration) in Cell Line HCT15) of the same compound?
Its GI50 is 0.16 µM.

What about the GI50 (HCT15; cells exposed for 24 h, read-out: GI50 values (μM) HCT15) of the same compound?
Its GI50 is 0.16 µM.

And the GI50 (MCF7; MCF-7 cell line, read-out: GI50 (MCF-7 moderately sensitive))?
Its GI50 is about 0.1 µM.

And the GI50 (MCF7; SRB assay, 48 h drug exposure, read-out: GI50 (molar concentration) in Cell Line MCF7)?
Its GI50 is under 0.1 µM.

What about the GI50 (MCF7; SRB assay, cells exposed for 24 h, read-out: GI50 values (μM) MCF7) of the same compound?
Its GI50 is under 0.1 µM.

And the GI50 (Hop62; 48 h drug exposure, read-out: GI50 (molar concentration) in Cell Line Hop62)?
The GI50 was 1.8 µM.

What about the GI50 (Hop62; cells exposed for 24 h, read-out: GI50 values (μM) Hop62) of the same compound?
Its GI50 is 1.8 µM.

And the Significant efflux (MDCK cells [2])?
Its Significant efflux is “No”.

What about the IC50 (NCI-H23) of the same compound?
Its IC50 is 6.9 nM.

What about the IC50 (NCI-H522) of the same compound?
The IC50 was 4.4 nM.

What about the IC50 (AS283) of the same compound?
The IC50 was 124 nM.

What about the IC50 (DLD-1) of the same compound?
Its IC50 is 22 nM.

What about the IC50 (RL) of the same compound?
Its IC50 is 281 nM.

And the IC50 (SW-620)?
Its IC50 is 49 nM.

What about the IC50 (K-562) of the same compound?
Its IC50 is 697 nM.

And the IC50 (NCI-H460)?
The IC50 was 14 nM.

And the IC50 (CCRF-CEM)?
The IC50 was 7 nM.

And the IC50 (HL-60)?
The IC50 was 1.7 nM.

What about the “resistance of PANC-1 in vitro (shown previously)” value (PANC-1 [3]) of the same compound?
Its value is “resistant”.

What about the “permeability through MDCK monolayers (in words)” value (MDCK cells [4]) of the same compound?
Its value is “poor permeability”.

And the Papp A→B [5]?
The Papp A→B was 0.17 ×10⁻⁶ cm/s.

What about the Papp B→A [5] of the same compound?
Its Papp B→A is 0.12 ×10⁻⁶ cm/s.

What about the efflux ratio [5] of the same compound?
The efflux ratio was 0.7.

And the recovery ([5]; percent recovery A -> B)?
Its recovery is 96%.

And the recovery ([5]; percent recovery B -> A)?
Its recovery is 95%.

And the Significant efflux (Caco-2 cells [6])?
Its Significant efflux is “No”.

What about the IC50 (CAKI-1) of the same compound?
Its IC50 is 8.3 nM.

What about the Papp A→B [7] of the same compound?
Its Papp A→B is 0.3 ×10⁻⁶ cm/s.

What about the Papp B→A [7] of the same compound?
The Papp B→A was 0.42 ×10⁻⁶ cm/s.

What about the efflux ratio [7] of the same compound?
Its efflux ratio is 1.4.

What about the recovery ([7]; Caco-2, percent recovery A -> B) of the same compound?
The recovery was 90%.

And the recovery ([7]; Caco-2, percent recovery B -> A)?
The recovery was 89%.

What about the “permeability across Caco-2 monolayers (in words)” value (Caco-2 cells [8]) of the same compound?
The value was “poor permeability”.

What about the GI50 (DU145) of the same compound?
Its GI50 is under 0.1 µM.

What about the recovery (in vitro) of the same compound?
The recovery was 100 to 110%.

And the IC50 (HCT-116)?
Its IC50 is 1.9 nM.

And the IC50 (MIA PaCa-2)?
Its IC50 is 26 nM.

What about the IC50 (HT-29) of the same compound?
The IC50 was 111 nM.
